Measured values reported in patent US11492618B2, “Expression control using a regulatable intron” (ASKLEPIOS BIOPHARMACEUTICAL, INC., priority 2017, dated 2022).

Experiments:
HEK293 cells [1] = assay: Cell death (trypan blue) after induction of intron-controlled caspase 9; type: cell-based, human; details: HEK293 with SYNP-CASP9-INT, DTT 2 mM
Protocol: Transfection was performed as previously described. DTT was added at 2 mM and forskolin was added at 10 μM. The latter was carried out to determine whether forskolin could induce the removal of the intron. Amongst other things, forskolin has potential gene therapy applications. Induction of intron removal was measured as function of cell death, with higher cell death an indicator of removal of the intron.
Experiments were performed as described in the methods namely, HEK or CHO-s cells were transfected with the aforementioned construct and incubated for 24 h. After this time the activating compound DTT or Forskolin was added, % cell death was then measured at 3, 5 and 24 h post-induction.
Induction of intron was measured as function of cell death, using the Countess II cell counter (Thermofisher). Cells were stained with trypan blue to ascertain cell viability. 10 μl of cell suspension was added to a Haemocytomer and analysed on the countess.

UPR = assay: Induction of UPR by candidate inducers, EGFP read-out from SYNP-ATF6-02; type: cell-based, human; details: HEK293F with SYNP-ATF6-02; DTT 2 mM, palmitate 0.5 mM, MF-43 1 μM; 0-24 hrs
Protocol: Experiments were performed to assess the ability of several candidate agents to induce the UPR. The ability of these candidate inducers to induce UPR was assessed using the techniques essentially as described above. The additional candidates tested were 0.5 mM palmitic acid, 1 uM MF-43 (2-methyl-5-(6-(4-(2-(trifluoromethyl)phenoxy)piperidin-1-yl)pyridazin-3-yl)-1,3,4-thiadiazole), which is an inhibitor of stearoyl-CoA desaturase, and a combination of both of these (for the same concentrations of each was used).
In these experiments transfections were done in 24-well plates as previously described. The SYNP-ATF6-02 plasmid (i.e. SYNP-ATF6-02 in pMA-RQ vector) was transfected into HEK293F cells and after 24 hrs GFP was measured. Induction of the UPR was then stimulated using the aforementioned inducers and samples were taken and measured at 0, 1, 3, 5 and 24 hrs after induction. GFP expression was measured as previously described. Results are the average of 3 individual experiments and the error bars represent the standard deviation.
Experimental procedure in brief: • 40 ml of cells were grown in a 250 ml vented Erlenmeyer flask (Sigma-Aldrich CLS431144) at 37° C., 8% CO2 with agitation at 100 rpm. […]
AAV production on induction of UPR: The ATF6 plasmid (i.e. SYNP-ATF6-02 in pMA-RQ vector) was transfected into HEK293 cells as previously described. 24 hrs later GFP was measured. […] EGFP fluorescence was then measured after 1, 3, 5 and 24 hrs. […]

HEK293-F cells = assay: Luciferase expression from UPR-inducible promoters with different minimal promoters after 2 mM DTT; type: cell-based, human
Excerpt: The purpose of this experiment was to test the ATF6-containing UPR-responsive cis-regulatory element (also referred to herein as an enhancer) as used in the examples above with different minimal promoters and to further assess their inducibility and tightness of control. To this end, the ATF6-containing UPR-responsive cis-regulatory element was operably linked to the CMV-MP and MinTK (herpes thymidine kinase minimal promoter) minimal promoters The constructs were synthesised by GeneART by chemical synthesis, as above.
As described above, the enhancer sequence contains 6 repeats of the sequence TGACGTGCT (which contains the ATF6 consensus sequence, TGACGTG) spaced by 20 bp spacer sequences. The enhancer sequence was coupled to either MinTK (in construct ATF06-MP001) or CMV-MP (in construct ATF06-MP002).
Transfection of HEK293-F cells was performed as previously described. DTT was added at a concentration of 2 mM. Luciferase activity was measured as previously described. The results are shown in FIG. 17—the DTT was added at time=0 h as shown on the X-axis (units are hours).

CHO cells = assay: SEAP activity from intron-containing SEAP construct after DTT induction; type: cell-based, Chinese hamster
Protocol: (§1) Experiments were performed essentially as described in the above methods, namely, HEK or CHO-s cells were transfected with the aforementioned construct (pMA-RQ) and incubated for 24 hrs. After this time the activating compound DTT was added at 2 mM final concentration, SEAP activity was then measured at 3, 5 and 24 hrs post-induction.
(§2) The protocol for transfection for 24 well plates was as described in Example 1. Thereafter: • Supernatant was measured for SEAP activity after 24 hrs. • Intron splicing from the SEAP construct was measured after addition of either 2 mM DTT by monitoring of SEAP activity after 3, 5 and 24 hrs. • SEAP activity was measured as per manufacturer's instructions, Roche, SEAP reporter gene assay kit, obtained from Sigma-Aldrich, Cat. No. 11 779 842 001.

HEK293 cells [2] = assay: as above; type: cell-based, human
Protocol: as §1, §2

HEK293F cells = assay: EGFP fluorescence from regulatable-intron construct before and after UPR induction with 2 mM DTT; type: cell-based, human
Protocol: (§3) The standard protocol for transfection of these cells was modified for 24 well plates as follows: • 40 ml of cells were grown in a 250 ml vented Erlenmeyer flask (Sigma-Aldrich CLS431144) at 37° C., 8% CO2 with agitation at 100 rpm. Cells were seeded as described in the manufacturer's instructions. • 1 day before transfection cells were counted using a haemocytometer and split to 500,000 cells/ml. • On the day of transfection cells are seeded to 1 million cells/ml in 500 μl of appropriate medium in a 24 well plate. • 0.625 μg of DNA/well was then added to 10 μl of OptiMem medium (Thermofisher; 11058021) and incubated for 5 minutes at room temperature. • Concurrently 0.625 μl of Max reagent was made up to 10 μl by addition of OptiMem and incubated for 5 minutes at room temperature. • After this incubation both mixes were added to the same tube and incubated at room temperature for 25-30 minutes. • The DNA/Max reagent mix (20 μl/well) was then added directly to the cells and the cells incubated as described previously. • Cells were then measured for GFP fluorescence after 24 hrs. • Intron splicing from the GFP construct was measured via addition of 2 mM DTT and monitoring of GFP fluorescence after 1 hr. DTT is a strong reducing agent which induces ER stress by disrupting the formation of disulphide bonds within the ER. […]

CHO-S cells = assay: as above; type: cell-based, Chinese hamster
Protocol: as §3

O[C@H](CS)[C@H](O)CS (racemic) [DTT, Dithiothreitol] was tested, and the “time after treatment at which % of dead cells is equal to the positive control” value (HEK293 cells [1]) was 5 h, the “number of dead cells after 3 h” value (HEK293 cells [1]; 3 h) was “close to the control construct which contained no intron” and the “induction of UPR indicated by expression of functional EGFP” value (from here on “induction of UPR indicated”) (UPR) was “very potent inducer of the UPR”.
In the case of Cc1nnc(-c2ccc(N3CCC(Oc4ccccc4C(F)(F)F)CC3)nn2)s1 [MF-43, 2-methyl-5-(6-(4-(2-(trifluoromethyl)phenoxy)piperidin-1-yl)pyridazin-3-yl)-1,3,4-thiadiazole], the “induction of UPR indicated” value (UPR) is reported as “effectively induced the UPR”.
In the case of CCCCCCCCCCCCCCCC(=O)O [palmitate, palmitic acid], the “induction of UPR indicated” value (UPR) is reported as “effectively induced the UPR”.
For “ATF06-MP001: ATF6 enhancer (6 repeats, 20 bp spacers) coupled to MinTK driving luciferase (SEQ ID NO: 59)”, the “inducibility of luciferase expression by DTT” value (HEK293-F cells; 2 mM DTT) was “good inducibility”, the “luciferase expression after induction of the UPR versus CMV-IE promoter” value (HEK293-F cells; 2 mM DTT) was “significantly higher than provided by the constitutive CMV-IE promoter” and the “luciferase expression prior to addition of DTT” value (HEK293-F cells; before 2 mM DTT) was “negligible expression”.
“SEAP-ATF6-001: SEAP expression construct with 6×ATF6 spaced by 20 bp, CMV-MP and regulatable intron (SEQ ID NO: 34)” was tested, and the “SEAP expression after 24 h higher than CMV-IE” value (CHO cells; 2 mM DTT, 24 h, CMV-IE shown in HEK293) was about 2 fold, the “SEAP expression before induction” value (CHO cells; no DTT) was “no SEAP expression” and the “SEAP expression after 24 h higher than CMV-IE” value (HEK293 cells [2]; HEK293, 2 mM DTT, 24 h) was about 2 fold. For the same molecule, the “SEAP expression before induction” value (HEK293 cells [2]; HEK293, no DTT) was “no SEAP expression”.
“SYNP-XBP-01: CMV-MP controlling expression of EGFP with XBP1 intron (SEQ ID NO: 28), in plasmid pMA-RQ” was tested, and the “GFP production induced upon inducing ER-Stress” value (HEK293F cells; 2 mM DTT, 1 hr after treatment, 3 independent experiments) was 4-10 fold, the “resultant GFP activity higher than the positive control” value (HEK293F cells; after 2 mM DTT, control CMV-MP-GFP) was 2.5-7 fold and the “background GFP fluorescence before induction” value (HEK293F cells; no DTT, versus control) was “considerably lower than the control”. The “GFP fluorescence induced upon addition of 2 mM DTT” value (CHO-S cells; 2 mM DTT) was over 1000 fold and the “background GFP fluorescence before induction” value (CHO-S cells; no DTT) was “no background at all”.
